# Measured values from patent US20230210116A1, “HONEYBEE REPELLENT” (EARTH CORPORATION, priority 2020, published 2023).
# Counter-ions that a name gives are not always drawn.
# Experiments:
# [1] = system: honeybees; test: Test for Confirmation of Effect from Combined Use with Pesticide 1, 2: number of dead honeybees; assay type: in vivo, western honeybees; conditions: for Number of dead honeybees: of 50 honeybees; for honeybees of the tested population that had died: test zone 1
# Excerpt: (§1) Cinnamyl alcohol was used as the active ingredient of the honeybee repellent proposed by the present invention, while dinotefuran was used as the pesticide.
# (§2) As the test sample representing the pesticide alone, a 0.01% by weight per volume ethanol solution of dinotefuran was used.
# (§3) (2) Preparation of Feeding Stations and Water Stations 2 cotton pads (80 mm×170 mm) were layered on a lid of KP cup (150 mm in diameter) and the cotton pads were impregnated with 40% sugar water (80 g), after which two disposable wooden chopsticks (80 mm in length) were placed as “landing areas,” for use as “test insect (honeybee, stink bug) feeding station A.”
# (§4) Also, equivalents of feeding station A above, except that water (80 g) was impregnated instead of 40% sugar water (80 g), were used as “water stations.”
# (§5) “Test insect (honeybee, stink bug) feeding station A,” whose cotton pads were sprayed uniformly with 5 mL (containing 0.5 mg of dinotefuran) of the 0.01% by weight per volume ethanol solution of dinotefuran, was used as “test insect (honeybee, stink bug) feeding station B.”
# (§6) “Test insect (honeybee, stink bug) feeding station A,” whose cotton pads were sprayed uniformly with 5 mL (containing 5 mg of cinnamyl alcohol and 0.5 mg of dinotefuran) of the mixed ethanol solution (0.1% by weight per volume of cinnamyl alcohol, 0.01% by weight per volume of dinotefuran), was used as “test insect (honeybee, stink bug) feeding station C.”
# (§7) 3 spaces (80 cm×80 cm×80 cm, 25° C.) covered with nylon gauze were designated as “untreated zone” in which a water station and feeding station A were installed, “test zone 1” in which a water station and feeding stations A, B were installed, and “test zone 2” in which a water station and feeding stations A, C were installed.
# (§8) In each of these “untreated zone,” “test zone 1,” and “test zone 2,” 50 honeybees (western honeybees) and 10 stink bugs (southern green stink bugs) were released and the number of dead honeybees and that of dead stink bugs were checked at the start of testing as well as 3 hours, 18 hours, and 20 hours after the start of testing.
# (§9) Carvacrol was used as the active ingredient of the honeybee repellent proposed by the present invention, while clothianidin or fipronil was used as the pesticide.
# (§10) As a test sample representing a combined use of the honeybee repellent proposed by the present invention and the pesticide, a mixed ethanol solution containing carvacrol and clothianidin (0.1% by weight per volume of carvacrol and 0.01% by weight per volume of clothianidin) or mixed ethanol solution containing carvacrol and fipronil (0.1% by weight per volume of carvacrol and 0.01% by weight per volume of fipronil) was used.
# As a test sample representing the pesticide alone, a 0.01% by weight per volume ethanol solution of clothianidin or 0.01% by weight per volume ethanol solution of fipronil was used.
# In the same manner as in <Test for Confirmation of Effect from Combined Use with Pesticide 1> above, the number of deaths among 50 honeybees (western honeybees) and that among 10 stink bugs (southern green stink bugs) were checked in each of the “untreated zone,” “test zone 1,” and “test zone 2.” Based on the results of <Test for Confirmation of Effect from Combined Use with Pesticide 1> above, the test was terminated when the number of dead honeybees in “test zone 1” reached around one half the tested population.
# [2] = system: stink bugs; test: Test for Confirmation of Effect from Combined Use with Pesticide 1, 2: number of dead stink bugs; assay type: in vivo, southern green stink bugs; conditions: of 10 stink bugs
# Excerpt: as §1, §2, §3, §4, §5, §6, §7, §8, §9
# as §10, with “used. […]” for “used.”
# [3] = system: honeybees; test: Test for Confirmation of Honeybee Repelling Effect 1, 2, 3 (feeding station with 40% sugar water); assay type: in vivo; conditions: for Corrected repelling rate (%) Honeybees: Test 3, 5 mL; for Corrected repelling rate R (%): honeybees
# [4] = system: stink bugs; test: Test for Confirmation of Stink Bug Behaviors against Active Ingredients 1, 2, 3 (treated filter paper); assay type: in vivo, southern green stink bugs
# Excerpt: The test samples in “Test for Confirmation of Honeybee Repelling Effect 1” above were used.
# A liquid calcium carbonate/ethanol dispersion was applied on the entire interior wall of a KP cup (100 mm in diameter×90 mm in height) and air-dried, after which a filter paper (90 mm in diameter) was fixed on the bottom face of the KP cup using double-sided tape. A different filter paper (90 mm in diameter) was cut along its diameter and the resulting semicircle-shaped paper was uniformly treated with 400 μL of each test sample or sample for correction, and then placed over the filter paper fixed on the aforementioned bottom face of the KP cup by allowing the circular parts to overlap, for use as a testing device.
# The “repelling rate Y” and “corrected repelling rate Z” were calculated from the above “time A (sec)” and “time B (sec)” using the calculation formula below. For the “repelling rate of sample for correction” used to calculate the “corrected repelling rate Z,” the repelling rate of each of the samples for correction above (ethanol alone or water alone being a solvent for the active ingredient) was used.
# Corrected repelling rate Z (%)={Repelling rate of test sample−Repelling rate of sample for correction}/{100−Repelling rate of sample for correction}×100
# For the test samples, the test samples in “Test for Confirmation of Honeybee Repelling Effect 2” above were used.
# [5] = 0 h (start of testing), 0.01% w/v pesticide, with or without 0.1% w/v repelling component, 5 mL on feeding station
# [6] = 3 hours after the start of test
# [7] = 0.1% by weight per volume solution
# [8] = Test 3, 0.1% by weight per volume solution, 400 μL
structure (smiles),measurement,setting,value
CN/C(=N/CC1CCOC1)N[N+](=O)[O-] (centres unmarked) [dinotefuran],Number of dead honeybees,[1]; [5],0
same,Number of dead honeybees,[1]; 3 h,1
same,Number of dead honeybees,[1]; 18 h,3
same,Number of dead honeybees,[1]; 20 h,21
same,honeybees of the tested population that had died,[1]; 20 hours after the start of testing,approx. 40%
same,Number of dead stink bugs,[2]; 0 h (start of testing),0
same,Number of dead stink bugs,[2]; 3 h,2
same,Number of dead stink bugs,[2]; 18 h,5
same,Number of dead stink bugs,[2]; 20 h,6
CN/C(=N\[N+](=O)[O-])NCc1cnc(Cl)s1 [clothianidin],Number of dead honeybees,[1]; [5],0
same,Number of dead honeybees,[1]; 1 h,11
same,Number of dead honeybees,[1]; 2 h,18
same,Number of dead honeybees,[1]; 3 h,39
same,honeybees of the tested population that had died,[1]; [6],approx. 60%
N#Cc1nn(-c2c(Cl)cc(C(F)(F)F)cc2Cl)c(N)c1[S+]([O-])C(F)(F)F (centres unmarked) [fipronil],Number of dead honeybees,[1]; [5],0
same,Number of dead honeybees,[1]; 2 h,14
same,Number of dead honeybees,[1]; 3 h,32
same,honeybees of the tested population that had died,[1]; [6],approx. 60%
"C=CCCCCCCCCC(=O)OCC [y-39, ethyl 10-undecenoate]",Corrected repelling rate (%) Honeybees,[3]; [7],75.8%
same,repelling of stink bugs and other injurious insects to be exterminated (in words),[4],not repelling stink bugs
same,Corrected repelling rate (%) Stinkbugs,[4]; [8],∘
"CC(=O)OCCc1ccccc1 [y-20, phenethyl acetate]",Corrected repelling rate (%) Honeybees,[3]; [7],58.9%
same,repelling of stink bugs and other injurious insects to be exterminated (in words),[4],not repelling stink bugs
same,Corrected repelling rate (%) Stinkbugs,[4]; [8],∘
"COc1cc(C=O)ccc1O [y-7, vanillin]",Corrected repelling rate (%) Honeybees,[3]; [7],61.2%
same,repelling of stink bugs and other injurious insects to be exterminated (in words),[4],not repelling stink bugs
same,Corrected repelling rate (%) Stinkbugs,[4]; [8],∘
"Cc1cccc2ccccc12 [y-87, 1-methylnaphthalene]",honeybee repelling rate,"[3]; Test 3, summary in text",≥ 50%
same,Corrected repelling rate (%) Honeybees,[3]; [7],74.3%
same,repelling of stink bugs and other injurious insects to be exterminated (in words),[4],not repelling stink bugs
same,Corrected repelling rate (%) Stinkbugs,[4]; [8],∘
"CC(=O)OCC=Cc1ccccc1 [y-18, cinnamyl acetate]",Corrected repelling rate (%) Honeybees,[3]; [7],69.0%
same,repelling of stink bugs and other injurious insects to be exterminated (in words),[4],not repelling stink bugs
same,Corrected repelling rate (%) Stinkbugs,[4]; [8],∘
"CCCCCC1CCCCC(=O)O1 (centres unmarked) [y-66, 6-undecanolactone]",Corrected repelling rate (%) Honeybees,[3]; [7],69.3%
same,repelling of stink bugs and other injurious insects to be exterminated (in words),[4],not repelling stink bugs
same,Corrected repelling rate (%) Stinkbugs,[4]; [8],∘
"CCCCCCCC [a-1, octane]",repelling effect / repelled behaviors of honeybees (in words),"[3]; Test 1, 2% by weight per volume solution",excellent repelling effect
same,Corrected repelling rate R (%),"[3]; Test 1, 2% by weight per volume solution, 5 mL sprayed (active ingredient 0.1 g)",57.0%
same,Corrected repelling rate (%) Stinkbugs,"[4]; Test 1, 2% by weight per volume solution, 400 μL on filter paper, 30 minutes",<0%
"c1ccc(-c2nc3ccccc3nc2-c2ccccc2)cc1 [y-84, 2,3-diphenylquinoxaline]",Corrected repelling rate (%) Honeybees,[3]; [7],75.8%
same,repelling of stink bugs and other injurious insects to be exterminated (in words),[4],not repelling stink bugs
same,Corrected repelling rate (%) Stinkbugs,[4]; [8],∘
"CC(C)CCOC=O [x-11, isoamyl formate]",Corrected repelling rate R (%),"[3]; Test 2, 0.1% by weight per volume solution, 5 mL (active ingredient 5 mg)",15.1%
same,Corrected repelling rate (%) Stinkbugs,"[4]; Test 2, 0.1% by weight per volume solution, 400 μL",<0%
"CCCCCCC(=O)OCC [y-54, ethyl heptanoate]",Corrected repelling rate (%) Honeybees,[3]; [7],20.9%
same,Corrected repelling rate (%) Stinkbugs,[4]; [8],∘
